# Results reported in patent publication US11066414B2, “Cot modulators and methods of use thereof” (Gilead Sciences, Inc., priority 2015, dated 2021).
# Tested on: TNFα
# Test: Cot Monocyte TNFα Cell Based Assay
# Conditions: Homo sapiens, Monocyte, read-out: EC50 TNF, LPS-stimulated human monocytes, TNFα
row,SMILES,EC50
1,"Cn1c(=O)ccc2c([C@H](Nc3cc(Cl)c4ncc(C#N)c(NCC(C)(C)C)c4c3)c3cn(C4(C(F)(F)F)CC4)nn3)cccc21 [Example 789, (S)-8-chloro-6-(((1-methyl-2-oxo-1,2-dihydroquinolin-5-yl)(1-(1-(trifluoromethyl)cyclopropyl)-1H-1,2,3-triazol-4-yl)methyl)amino)-4-(neopentylamino)quinoline-3-carbonitrile]",0.156 µM
2,"CC(C)(C)CNc1c(C#N)cnc2c(Cl)cc(N[C@H](c3cn(C4(C(F)(F)F)CC4)nn3)c3cccc4c(=O)n(C(F)F)ccc34)cc12 [Example 788, (S)-8-chloro-6-(((2-(difluoromethyl)-1-oxo-1,2-dihydroisoquinolin-5-yl)(1-(1-(trifluoromethyl)cyclopropyl)-1H-1,2,3-triazol-4-yl)methyl)amino)-4-(neopentylamino)quinoline-3-carbonitrile]",0.208 µM
3,"[2H]C(Nc1cc(Cl)c2ncc(C#N)c(N[C@H](CC)c3ccccc3)c2c1)(c1cn(C2CC2)nn1)c1cc(F)cnc1C (stereo partly drawn) [Example 113, 8-chloro-6-(((1-cyclopropyl-1H-1,2,3-triazol-4-yl)(5-fluoro-2-methylpyridin-3-yl)methyl-d)amino)-4-(((R)-1-phenylpropyl)amino)quinoline-3-carbonitrile]",0.253 µM
4,"Cc1ncccc1[C@H](Nc1cc(Cl)c2ncc(C#N)c(Nc3ccc(F)c(Cl)c3)c2c1)c1c[nH]nn1 [Example 272, (S)-8-chloro-4-((3-chloro-4-fluorophenyl)amino)-6-(((2-methylpyridin-3-yl)(1H-1,2,3-triazol-4-yl)methyl)amino)quinoline-3-carbonitrile]",0.297 µM
5,"CC(C)(C)N1CCC(n2cc([C@@H](Nc3cc(Cl)c4ncc(C#N)c(Nc5cncc(Cl)c5)c4c3)c3cccnc3)nn2)CC1 [Example 284, (S)-6-(((1-(1-(tert-butyl)piperidin-4-yl)-1H-1,2,3-triazol-4-yl)(pyridin-3-yl)methyl)amino)-8-chloro-4-((5-chloropyridin-3-yl)amino)quinoline-3-carbonitrile]",1.3 µM
6,"Cc1ccc([C@H](Nc2cc(Cl)c3ncc(C#N)c(Nc4ccc(F)c(Cl)c4)c3c2)c2cn(C3CCN(C(C)(C)C)CC3)nn2)cn1 [Example 281, (S)-6-(((1-(1-(tert-butyl)piperidin-4-yl)-1H-1,2,3-triazol-4-yl)(6-methylpyridin-3-yl)methyl)amino)-8-chloro-4-((3-chloro-4-fluorophenyl)-amino)quinoline-3-carbonitrile]",0.575 µM
7,"Cc1ccc([C@H](Nc2cc(Cl)c3ncc(C#N)c(Nc4ccc(F)c(Cl)c4)c3c2)c2cn(C(C)C)nn2)cn1 [Example 280, (S)-8-chloro-4-((3-chloro-4-fluorophenyl)amino)-6-(((1-isopropyl-1H-1,2,3-triazol-4-yl)(6-methylpyridin-3-yl)methyl)amino)quinoline-3-carbonitrile]",0.811 µM
8,"Cn1ccc2c([C@H](Nc3cc(Cl)c4ncc(C#N)c(NCC(C)(C)C)c4c3)c3cn(C4CC4)nn3)ccnc21 [Example 519, (S)-8-chloro-6-(((1-cyclopropyl-1H-1,2,3-triazol-4-yl)(1-methyl-1H-pyrrolo[2,3-b]pyridin-4-yl)methyl)amino)-4-(neopentylamino)quinoline-3-carbonitrile]",0.158 µM
9,"Cc1ncsc1[C@H](Nc1cc(Cl)c2ncc(C#N)c(Nc3cnc(F)c(F)c3)c2c1)c1c[nH]nn1 [Example 170, (R)-8-chloro-4-((5,6-difluoropyridin-3-yl)amino)-6-(((4-methylthiazol-5-yl)(1H-1,2,3-triazol-4-yl)methyl)amino)quinoline-3-carbonitrile]",1.26 µM
10,"N#Cc1cnc2c(Cl)cc(N[C@@H](c3cccnc3)c3cn(C4COC4)nn3)cc2c1N[C@@H](CCO)c1ccccc1 [Example 182, 8-chloro-4-(((S)-3-hydroxy-1-phenylpropyl)amino)-6-(((S)-(1-(oxetan-3-yl)-1H-1,2,3-triazol-4-yl)(pyridin-3-yl)methyl)amino)quinoline-3-carbonitrile]",1.04 µM
11,"COc1ccnc2cccc([C@H](Nc3cc(Cl)c4ncc(C#N)c(NCC(C)(C)C)c4c3)c3cn(C4(C(F)(F)F)CC4)nn3)c12 [Example 632, (S)-8-chloro-6-(((4-methoxyquinolin-5-yl)(1-(1-(trifluoromethyl)cyclopropyl)-1H-1,2,3-triazol-4-yl)methyl)amino)-4-(neopentylamino)quinoline-3-carbonitrile]",1 µM
12,"Cc1nc(F)ccc1[C@H](Nc1cc(C#N)c2ncc(C#N)c(N[C@@H](c3ccccc3)C3CC3)c2c1)c1cn(C2(C(F)(F)F)CC2)nn1 [Example 613, 4-(((R)-cyclopropyl(phenyl)methyl)amino)-6-(((S)-(6-fluoro-2-methylpyridin-3-yl)(1-(1-(trifluoromethyl)cyclopropyl)-1H-1,2,3-triazol-4-yl)methyl)amino)quinoline-3,8-dicarbonitrile]",0.144 µM
13,"CCN1CCC(n2cc(C(Nc3cc(Cl)c4ncc(C#N)c(Nc5ccc(F)c(Cl)c5)c4c3)c3ncccn3)nn2)CC1 (stereo not drawn) [Example 367, 8-chloro-4-((3-chloro-4-fluorophenyl)amino)-6-(((1-(1-ethylpiperidin-4-yl)-1H-1,2,3-triazol-4-yl)(pyrimidin-2-yl)methyl)-amino)quinoline-3-carbonitrile]",0.338 µM
14,"Cc1ccc([C@H](Nc2cc(Cl)c3ncc(C#N)c(NCC(C)(C)C)c3c2)c2cn(C3(C(F)(F)F)CC3)nn2)cn1 [Example 795, (S)-8-chloro-6-(((6-methylpyridin-3-yl)(1-(1-(trifluoromethyl)cyclopropyl)-1H-1,2,3-triazol-4-yl)methyl)amino)-4-(neopentylamino)quinoline-3-carbonitrile]",0.53 µM
15,"Cc1nc(F)ccc1[C@H](Nc1cc(Cl)c2ncc(C#N)c(NCC(C)(C)C)c2c1)c1nnn(C2CC2)c1C [Example 647, (S)-8-chloro-6-(((1-cyclopropyl-5-methyl-1H-1,2,3-triazol-4-yl)(6-fluoro-2-methylpyridin-3-yl)methyl)amino)-4-(neopentylamino)quinoline-3-carbonitrile]",0.133 µM
16,"CC(C)(C)N1CCC(n2cc([C@@H](Nc3cc(Cl)c4ncc(C#N)c(Nc5ccc(F)c(Cl)c5)c4c3)c3cnc(F)c(F)c3)nn2)CC1 [Example 292, (S)-6-(((1-(1-(tert-butyl)piperidin-4-yl)-1H-1,2,3-triazol-4-yl)(5,6-difluoropyridin-3-yl)methyl)amino)-8-chloro-4-((3-chloro-4-fluorophenyl)amino)quinoline-3-carbonitrile]",0.327 µM

# Same assay, conditions: Homo sapiens, Monocyte, read-out: EC50 TNF, LPS-stimulated human monocytes, TNFα TR-FRET
row,SMILES,EC50
1,"CC(C)(C)CNc1c(C#N)cnc2c(C#N)cc(N[C@H](c3cn(C4(C(F)(F)F)CC4)nn3)c3cccc4c(C#N)nccc34)cc12 [Example 817, (S)-6-(((1-cyanoisoquinolin-5-yl)(1-(1-(trifluoromethyl)cyclopropyl)-1H-1,2,3-triazol-4-yl)methyl)amino)-4-(neopentylamino)quinoline-3,8-dicarbonitrile]",0.116 µM
2,"Cc1nc(F)ccc1[C@H](Nc1cc(C#N)c2ncc(C#N)c(NCC(C)(C)C(F)(F)F)c2c1)c1nnn(C2(C3CC3)CC2)c1F [Example 862, (S)-6-(((1-([1,1′-bi(cyclopropan)]-1-yl)-5-fluoro-1H-1,2,3-triazol-4-yl)(6-fluoro-2-methylpyridin-3-yl)methyl)amino)-4-((3,3,3-trifluoro-2,2-dimethylpropyl)amino)quinoline-3,8-dicarbonitrile]",0.049 µM
